Laboratory results taken from PubChem BioAssay (NCI).
“And” between values parts separate entries of the source, which are not always exact repeats. Equal values may be shown once.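 Compound exposure: 48 hours, 5 concentrations, 96-well plates. GI50 = concentration required for 50% inhibition of growth. At the TGI there is no net growth.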

Legend:
Test in all cases: growth of human tumour cells (NCI), 48 h
[1] = system: ACHN renal
[2] = system: DU-145 prostate
[3] = system: HCC-2998 colon
[4] = system: HOP-62 NSCLC
[5] = system: HS 578T breast
[6] = system: K-562 leukemia
[7] = system: KM12 colon
[8] = system: M14 melanoma
[9] = system: MALME-3M melanoma
[10] = system: MDA-MB-435
[11] = system: MOLT-4 leukemia
[12] = system: NCI-H23 lung
[13] = system: SF-295 CNS
[14] = system: SK-MEL-2 melanoma
[15] = system: SNB-19 CNS
[16] = system: SR leukemia
[17] = system: UACC-62 melanoma

Structure (SMILES)	TGI [1]	TGI [2]	TGI [3]	TGI [4]	TGI [5]	TGI [6]	TGI [7]	TGI [8]	TGI [9]	TGI [10]	TGI [11]	TGI [12]	TGI [13]	TGI [14]	GI50 [15]	TGI [15]	TGI [16]	TGI [17]	GI50 [4]	GI50 [7]
COc1ccc(/C=C2/C(=O)N(/C=C3\C(=O)Oc4ccccc4C3=O)C(=NC(C)=O)N2C)cc1OC	> 100 µM	> 100 µM	> 100 µM	> 100 µM	> 100 µM	> 100 µM	> 100 µM	> 100 µM	> 100 µM	> 100 µM	> 100 µM	> 100 µM	> 100 µM	> 100 µM	> 100 µM	> 100 µM	> 100 µM	> 100 µM		
COc1cc([N+](=O)[O-])cc2c1NC(=O)C2(C)SC (stereo unspecified)	> 100 µM	> 100 µM	> 100 µM	> 100 µM	> 100 µM	> 100 µM	> 100 µM	> 100 µM	> 100 µM	> 100 µM	> 100 µM	> 100 µM	> 100 µM	> 100 µM		> 100 µM	> 100 µM	> 100 µM		
O=C1c2ccccc2C(=O)c2c1sc1nc3ccccc3n21	6.27 µM	3.13 µM	3.79 µM		0.0525 µM	5.09 µM	3.91 µM	3.15 µM	1.6 µM	4.37 µM	4.89 µM	3.74 µM	3.04 µM			4.42 µM	> 100 µM	3.51 µM		
Clc1ccc(C2=Cc3nc2c(-c2ccccc2)c2ccc([nH]2)c(-c2ccccc2)c2nc(c(-c4ccccc4)c4ccc([nH]4)c3-c3ccccc3)C=C2)cc1	> 62.5 µM	> 62.5 µM	> 62.5 µM	> 62.5 µM	> 62.5 µM	> 62.5 µM	> 62.5 µM	> 62.5 µM	> 62.5 µM	> 62.5 µM	> 62.5 µM	> 62.5 µM	> 62.5 µM	> 62.5 µM		> 62.5 µM	> 62.5 µM	> 62.5 µM		
O=S(=O)(N1CCCCN(S(=O)(=O)C(F)(F)F)CCCN(S(=O)(=O)C(F)(F)F)CCCCN(S(=O)(=O)C(F)(F)F)CCCN(S(=O)(=O)C(F)(F)F)CCCCN(S(=O)(=O)C(F)(F)F)CCCN(S(=O)(=O)C(F)(F)F)CCCCN(S(=O)(=O)C(F)(F)F)CCC1)C(F)(F)F	> 31.6 µM	> 31.6 µM	> 31.6 µM	> 31.6 µM	> 31.6 µM	> 31.6 µM	> 31.6 µM	> 31.6 µM	> 31.6 µM	> 31.6 µM	> 31.6 µM	> 31.6 µM	> 31.6 µM	> 100 µM		> 31.6 µM		> 31.6 µM		
CNC(=O)OCC1=C(COC(=O)NC)CN(c2ccc(OC)cc2)C1	> 100 µM	> 100 µM	> 100 µM	> 100 µM	> 100 µM	> 100 µM	> 100 µM	> 100 µM	> 100 µM	> 100 µM	> 100 µM	> 100 µM	> 100 µM	> 100 µM		> 100 µM	> 100 µM	> 100 µM		
CCCCCCCCCc1cc(=O)c2c(O)cc(O)cc2o1	34.5 µM	36.7 µM	35.8 µM	28.5 µM	40.6 µM	26 µM	21.3 µM	34.9 µM	32 µM	41.1 µM	22.3 µM	34.2 µM	36 µM	34.3 µM		34.7 µM	32.7 µM			
c1cc2nnc1SCCSCCCSCCS2	> 100 µM	> 100 µM	> 100 µM	> 100 µM	> 100 µM	> 100 µM	> 100 µM	> 100 µM	> 100 µM	> 100 µM	> 100 µM	> 100 µM	> 100 µM	> 100 µM		> 100 µM	> 100 µM	> 100 µM		
COC(=O)C(Cc1ccccc1)NP(=O)(O)OCC1OC(n2ccc(N)nc2=O)C(O)C1O (stereo unspecified)	> 100 µM	> 100 µM	> 100 µM	> 100 µM	> 100 µM	> 100 µM	> 100 µM	> 100 µM	> 100 µM	> 100 µM	> 100 µM	> 100 µM	> 100 µM	> 100 µM		> 100 µM	> 100 µM	> 100 µM		
CCCCCCCCCCCCCCCCCCOC(COP(=O)(O)OCC1OC(n2cc(F)c(=O)[nH]c2=O)CC1O)COP(=O)(O)OCC1OC(n2ccc(N)nc2=O)C(O)C1O (stereo unspecified)	> 100 µM	> 100 µM	> 70.5 µM	> 100 µM	> 100 µM	> 100 µM	> 100 µM	62.5 µM	> 100 µM	> 100 µM	> 79.8 µM	> 100 µM	> 100 µM	> 100 µM		41.2 µM	> 100 µM	> 100 µM		
O=C1/C(=C\c2cccc(Oc3ccccc3)c2)SC(c2ccccc2)N1Cc1ccccc1 (stereo unspecified)	> 100 µM	> 100 µM	> 100 µM	> 100 µM	82.5 µM	> 100 µM	83.8 µM	66.7 µM	57.7 µM	76.2 µM	75.7 µM	62.7 µM	> 100 µM	45.7 µM		92.8 µM	56.8 µM	> 100 µM		
CCOC(=O)n1ccc2c(C(=O)OC)c(C(=O)OC)cc(/C(=C/C(=O)OC)C(=O)OC)c21	> 100 µM	> 100 µM	> 100 µM	> 100 µM	> 100 µM	> 100 µM	> 100 µM	> 100 µM	> 100 µM	> 100 µM	> 100 µM	> 100 µM	> 100 µM	> 100 µM		> 100 µM	> 100 µM	> 100 µM		
CC(O)/C=C/C1OC(=O)CC1Nc1ccc(C=O)cc1 (stereo unspecified)	> 100 µM	> 100 µM	> 100 µM	77.4 µM	> 100 µM	> 100 µM	> 100 µM	41.9 µM	> 100 µM	> 100 µM	77.5 µM	> 100 µM	> 100 µM	74.7 µM		> 100 µM	73.8 µM	58.1 µM		
CCOC(=O)/C=C(\C(=O)OCC)n1cc(C)c(=O)n(Cc2cn(COCCOC(C)=O)nn2)c1=O	19.5 µM	> 100 µM	43 µM	38.7 µM	46.1 µM	> 100 µM	30.4 µM			28.2 µM	22 µM	29.8 µM	46.3 µM	34.5 µM		39 µM	57.7 µM	33.8 µM		
C/C(=N\NC(N)=S)C(CN1CCCCC1)C(C1=C(O)c2ccccc2OC1)c1ccccc1 (stereo unspecified)	> 100 µM	> 100 µM	> 100 µM	> 100 µM	> 100 µM		> 100 µM	> 100 µM	> 100 µM	> 100 µM	> 100 µM	> 100 µM	> 100 µM	> 100 µM		> 100 µM	> 100 µM	> 100 µM		
COC(OC)[C@@H]1OC[C@H](n2ccc(=O)[nH]c2=O)[C@H]1O	> 100 µM	> 100 µM	> 100 µM	> 100 µM	> 100 µM	> 100 µM	> 100 µM	> 100 µM		> 100 µM	> 100 µM	> 100 µM	> 100 µM	> 100 µM		> 100 µM	> 100 µM	> 100 µM		
COC(=O)C1=C(C(=O)OC)N(c2ccncc2)C(c2ccco2)=CC1c1ccccc1[N+](=O)[O-] (stereo unspecified)	3.47 µM	18 µM	3.7 µM	> 46.2 µM	27.8 µM	> 100 µM	3.38 µM		18.7 µM	> 39.8 µM	6.17 µM	29.8 µM	15.8 µM	36.1 µM		41 µM	5.26 µM	27 µM		
CC(=S)NC=C(C(N)=O)C(N)=O	> 100 µM	> 100 µM	> 100 µM	> 100 µM	> 100 µM	> 100 µM	> 100 µM	> 100 µM	> 100 µM	> 100 µM	> 100 µM	> 100 µM	> 100 µM	> 100 µM			> 100 µM	> 100 µM		
N#CCc1nc(-c2cc3ccc(O)cc3oc2=O)cs1	> 100 µM	> 100 µM	> 100 µM	> 100 µM	> 100 µM	> 100 µM	> 100 µM	> 100 µM	> 100 µM	> 100 µM	> 100 µM		> 100 µM	66 µM		> 100 µM	> 100 µM	63.3 µM		
OCCCN=C1N=C(Cl)/C(=C\c2ccccc2)N1	> 100 µM	> 100 µM	> 100 µM		> 100 µM	> 100 µM	> 100 µM	> 100 µM	> 100 µM	> 100 µM	> 100 µM	> 100 µM	> 100 µM			> 100 µM	> 100 µM			
CN(C(=O)C12C3(C(=O)O)C4C5(C(=O)O)C3C1(C(=O)O)C5C42C(=O)O)C(C)(C)C (stereo unspecified)	> 100 µM	> 100 µM	> 100 µM	> 100 µM	> 100 µM	> 100 µM	> 100 µM	> 100 µM		> 100 µM	> 100 µM	> 100 µM	> 100 µM	> 100 µM		> 100 µM	> 100 µM	> 100 µM		
COc1cc(/C=C/C(=O)N[C@@H]2C(=O)N3[C@@H]2SC(C)(C)[C@@H]3C(=O)O)ccc1O	> 100 µM	> 100 µM	> 100 µM	> 100 µM	> 100 µM	> 100 µM	> 100 µM	> 100 µM		> 100 µM	> 100 µM	> 100 µM	> 100 µM	> 100 µM		> 100 µM	> 100 µM	> 100 µM		
CC(=O)O[C@H]1C(=O)[C@@]2(C)[C@H]([C@H](OC(=O)c3ccccc3)[C@]3(O)C[C@H](OC(=O)[C@H](O)[C@@H](NC(=O)C(C)(O)C(C)O)c4ccccc4)C(C)=C1C3(C)C)[C@]1(OC(C)=O)CO[C@@H]1C[C@@H]2O (stereo partly specified)	> 50 µM	> 12.1 µM	0.743 µM	5.21 µM	0.737 µM	> 50 µM		> 50 µM	> 50 µM	0.169 µM	> 50 µM	> 50 µM	16.5 µM			> 50 µM	> 15.9 µM	> 50 µM		
CC(=O)OC1OC(C2c3cccc(O)c3C(=O)c3c(O)cc(CO)cc32)C(O)C(O)C1O (stereo unspecified)		> 100 µM and 84.1 µM	5.81 µM and 6.58 µM	11.6 µM and 18.5 µM	7.38 µM and 7.12 µM	> 100 µM	4.54 µM and 4.23 µM	24.4 µM and 24.8 µM	19.5 µM and 25.3 µM	11.6 µM and 14.3 µM	52.2 µM and 66.5 µM	11.3 µM and 13 µM	10.5 µM and 22 µM	6.11 µM and 5.71 µM		6.7 µM and 6.51 µM	> 100 µM and 33.1 µM	16.6 µM and 17.7 µM	2.38 µM and 5.03 µM	0.811 µM and 0.17 µM
Cc1[nH]c2[nH]c(=S)nc(NC(N)=S)c2c1Cc1ccccc1	> 100 µM	> 100 µM		> 100 µM	60.6 µM	> 100 µM	40.7 µM	> 100 µM		36.6 µM	> 100 µM	> 100 µM	> 100 µM	> 100 µM		> 100 µM	36.2 µM	> 100 µM		
CCOC1Oc2ccccc2-c2nc(N)ncc21 (stereo unspecified)	> 100 µM	> 100 µM			> 100 µM		> 100 µM	> 100 µM		66.3 µM	> 100 µM	> 100 µM	> 100 µM	> 100 µM		> 100 µM	61.2 µM	> 100 µM		
O=C(O)C(C(F)(F)F)C(F)(F)F (tested in a mixture with another compound)	> 100 µM	> 100 µM		> 100 µM	> 100 µM	> 100 µM	> 100 µM	> 100 µM	> 100 µM	> 100 µM	> 100 µM	> 100 µM	> 100 µM	> 100 µM		> 100 µM	> 100 µM	> 100 µM		
